This note sets out measurements from US20190119200A1, “TERTIARY AMIDES AND METHOD OF USE” (AbbVie Inc., priority 2016, published 2019).

The subject of assay [1] is LPA-induced MCP-1 in NRK-49F cells. As to the kind of experiment: LPA-induced MCP-1 AlphaLISA assay. Format: cell-based. To be noted: Rattus norvegicus, final LPA 10 μM, 7 hours; for Emax: read-out: Maximum Inhibition. The protocol: Two days prior to the experiment, NRK-49F cells were plated at 8,000 cells/well in 100 μL of growth medium [DMEM (Life Technologies #11995) with 5% dFBS (Life Technologies #30067-334), 100 units/mL penicillin/streptomycin (Life Technologies #15140122)] in 96-well clear flat bottom polystyrene TC-treated microplate (Corning® #3599) and incubated in humidified 10% CO2 at 37° C. One day prior to the experiment, the cell medium was removed and serum free medium [100 μL/well, DMEM (Life Technologies #11995) with 0.1% fatty acid free BSA (Sigma #A6003)] was added with continued incubation in humidified 10% CO2 at 37° C. overnight. On the day of the assay, test compounds were 1:3 serially diluted in 100% DMSO using a BioTek Precision™ system and then transferred (equivalent volume of DMSO as controls) to a plate in serum free medium [DMEM with 0.1% fatty acid free BSA] using a Biomek® NX workstation to give a 2× compound solution. The cell culture medium was removed, and cells were pre-treated with 50 μL/well of 2× compound in serum free medium [DMEM with 0.1% fatty acid free BSA] at 37° C. for 30 minutes. Following the incubation, 50 μL/well of 20 μM LPA diluted in serum free medium [DMEM with 0.1% fatty acid free BSA] was added to the cells. Serum free medium [DMEM with 0.1% fatty acid free BSA] was used as substitution for low control wells while 20 µM LPA was added to high control wells and test compound wells. 200 µM LPA was added to EC100 wells. Final DMSO concentration was 1% in every well. Final LPA concentration in test compound wells and high control wells was 10 μM. […] After the incubation, cell supernatant was transferred to a new 96 well polypropylene plate (Greiner #651201) where it was sealed and stored at −80° C. On the detection day, 5 μL of thawed cell supernatant was transferred to a new white opaque 384-well microplate (Perkin Elmer #6007299). An AlphaLISA® mouse/rat CCL2/MCP1, Immunoassay Research kit (PerkinElmer #AL509F) was used. A mixture (20 μL/well) of AlphaLISA® Anti-Analyte Accept beads (10 μg/mL final) and Biotinylated Antibody Anti-Analyte (freshly prepared, 1 nM final) was added. The mixture in the wells was mixed and then incubated at room temperature for 1 hour. Then SA-Donor beads (25 μL/well, 40 μg/mL final) were added giving a final volume of 50 μL/well. The contents of the wells were mixed and then incubated at room temperature for 0.5 hour (protect from light). The plate was read using the default Envision™ Alpha protocol (PerkinElmer). IC50 values were calculated from curve fits of the ratio data using a four-parameter logistic Hill equation (Assay Explorer 3.3 Client).

Another assay addresses T1, LPAR1 (Homo sapiens, UniProt Q92633).
T1 construct: host or cells: U2OS
Briefly: LPAR1 FLIPR Assay. Format: cell-based. To be noted: U2OS cells stably expressing LPAR1, LPA (EC80), Calcium 6 FLIPR dye; for Emax: read-out: Maximum Inhibition. On the procedure: U2OS cells stably expressing LPAR1 (Life Technologies #K1519A) were plated at 12000 cells/well in growth medium (McCoy's 5A medium(Life Technologies 16600-082)) with 10% dFBS (Life Technologies 26400-036), 0.1 mM non-essential amino acids, 25 mM HEPES, 1 mM sodium pyruvate, 1% penicillin/streptomycin, 50 μg/mL hygromycin, and 100 μg/mL Geneticin® in black-walled, clear-bottom 384-well plates (Corning #3683) and incubated in humidified 5% CO2 at 37° C. overnight. On the day of the assay, medium was removed and 30 μL of 5% Calcium 6 FLIPR dye in assay buffer-HBSS (Life Technologies #14025) containing 20 mM HEPES (Life Technologies #15630-080) was added to the cells. Cells were incubated at 37° C. in the dark for 2 hours. Compounds were 3-fold serial diluted from 10 mM for 11-points using dimethyl sulfoxide. 1 μL of compound in DMSO was diluted in 82.3 μL assay buffer immediately before the assay. Using a FLIPR® TETRA® system, 15 μL of the (4×) compound solutions were first added to the cells, then 15 μL of LPA (EC80) diluted in of assay buffer supplemented with 0.1% BSA was added 3 minutes later to activate the receptor. Changes in fluorescence were measured at wavelengths of 515-575 nm over the course of the experimental run. IC50 values were calculated from curve fits of the ratio data using a four-parameter logistic Hill equation (Assay Explorer 3.3 Client).

T1 sequence (Q92633 whole entry): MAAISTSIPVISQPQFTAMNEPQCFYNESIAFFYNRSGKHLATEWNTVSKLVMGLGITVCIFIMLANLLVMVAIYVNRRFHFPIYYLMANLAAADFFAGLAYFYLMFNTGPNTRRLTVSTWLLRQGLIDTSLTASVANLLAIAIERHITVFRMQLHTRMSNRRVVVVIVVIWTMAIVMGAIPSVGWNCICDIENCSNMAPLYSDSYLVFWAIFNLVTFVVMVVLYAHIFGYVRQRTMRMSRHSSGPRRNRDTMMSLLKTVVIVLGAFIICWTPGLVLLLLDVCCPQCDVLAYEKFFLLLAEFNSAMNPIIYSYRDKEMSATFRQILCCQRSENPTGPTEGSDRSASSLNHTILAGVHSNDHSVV

In general, IC50 refers to the concentration needed to halve the response being measured. For `COc1cc(OC)cc(C(=O)N(CCCCC(=O)O)CCCc2ccc(F)cc2)c1` [Example 148, 5-{(3,5-dimethoxybenzoyl)[3-(4-fluorophenyl)propyl]amino}pentanoic Acid], in assay [1], the half-inhibitory concentration (IC50) was more than 10000 nM and the Emax came out at 40%. For the same compound, at LPAR1, the IC50 was more than 10000 nM and the Emax is 47%.
`COc1cc(C(=O)N(CCCc2ccccc2Cl)CCSCC(=O)O)cc(OC)c1C` [Example 112, [(2-{[3-(2-chlorophenyl)propyl](3,5-dimethoxy-4-methylbenzoyl)amino}ethyl)sulfanyl]acetic Acid]: the half-maximal inhibitory concentration (IC50) in assay [1] came out at 996 nM; on LPAR1 it was 315 nM. In addition, the results for the Emax (in assay [1]; at LPAR1) were 78% and 77%, respectively.
Take `COc1cc(C(=O)N(CCCCC(=O)O)CCCc2cc(F)cc(F)c2)cc(OC)c1C` [Example 126, 5-{[3-(3,5-difluorophenyl)propyl](3,5-dimethoxy-4-methylbenzoyl)amino}pentanoic Acid]: the half-maximal inhibitory concentration (IC50) in assay [1] amounted to 3890 nM; on LPAR1 it was 119 nM. Further, the Emax in assay [1] amounted to 75%; on LPAR1, 74%.
Regarding `COc1cc(C(=O)N(CCCOC(=O)NS(=O)(=O)c2ccc(F)cc2)CCCc2ccccc2)cc(OC)c1C` [Example 145, 3-[(3,5-dimethoxy-4-methylbenzoyl)(3-phenylpropyl)amino]propyl (4-fluorobenzene-1-sulfonyl)carbamate], in assay [1], it took 3960 nM to reach half-maximal inhibition (IC50) and the Emax is 59%. Besides, on LPAR1, the IC50 is 437 nM and the Emax stood at 51%.
As to `COc1cc(C(=O)N(CCCCC(=O)O)CCCc2ccccc2)ccc1Cl` [Example 17, 5-[(4-chloro-3-methoxybenzoyl)(3-phenylpropyl)amino]pentanoic Acid], in assay [1], the IC50 is more than 1300 nM and the Emax turned out to be 65%. On LPAR1, the IC50 was 3980 nM and the Emax worked out at 61%.
The corresponding values for `COc1ccc(C2(C(=O)N(CCCc3ccccc3)CCOCC(=O)O)CC2)cc1` [Example 87, (2-{[1-(4-methoxyphenyl)cyclopropane-1-carbonyl](3-phenylpropyl)amino}ethoxy)acetic Acid] are 5440 nM, 62%, 81 nM and 71%.
For the compound `COc1cc(OC)cc(C(=O)N(CCCCC(=O)O)CCCc2ccc(C)o2)c1` [Example 133, 5-{(3,5-dimethoxybenzoyl)[3-(5-methylfuran-2-yl)propyl]amino}pentanoic Acid], in assay [1], half-maximal inhibition (IC50) required 3190 nM and the Emax came out at 68%. On LPAR1, the concentration for half-maximal inhibition (IC50) worked out at 46 nM and the Emax is 78%.
The corresponding values for `CCCCC(C)(CCCN(CCCc1ccccc1)C(=O)c1cc(OC)c(C)c(OC)c1)C(=O)O` (stereo not drawn) [Example 97, 2-{3-[(3,5-dimethoxy-4-methylbenzoyl)(3-phenylpropyl)amino]propyl}-2-methylhexanoic Acid] are 36 nM, 94%, 116 nM and 97%.
The corresponding values for `COc1cc(C(=O)N(CCCCC(=O)NS(=O)(=O)c2cccnc2)CCCc2ccccc2)cc(OC)c1C` [Example 142, 3,5-dimethoxy-4-methyl-N-{5-oxo-5-[(pyridine-3-sulfonyl)amino]pentyl}-N-(3-phenylpropyl)benzamide] are 831 nM, 90%, 76 nM and 88%.
The corresponding values for `COc1ccc(C2(C(=O)N(CCCCC(=O)O)CCCc3ccccc3)CC2)c(F)c1` [Example 103, 5-{[1-(2-fluoro-4-methoxyphenyl)cyclopropane-1-carbonyl](3-phenylpropyl)amino}pentanoic Acid] are 5460 nM, 62%, 68 nM and 75%.
With `COc1cc(OC)c([N+](=O)[O-])c(C(=O)N(CCCCC(=O)O)CCCc2ccccc2)c1` [Example 19, 5-[(3,5-dimethoxy-2-nitrobenzoyl)(3-phenylpropyl)amino]pentanoic Acid], the IC50 in assay [1] stood at 783 nM; at LPAR1, 71 nM. Further, the Emax was 84% in assay [1] and 98% at LPAR1.
The corresponding values for `COc1cc(C(=O)N(CCCCC(=O)O)CCCc2ccc(F)cc2F)cc(OC)c1C` [Example 146, 5-{[3-(2,4-difluorophenyl)propyl](3,5-dimethoxy-4-methylbenzoyl)amino}pentanoic Acid] are 807 nM, 46 nM, 79% and 89%.
With `COc1ccc(C2(C(=O)N(CCCCC(=O)O)CCCc3ccccc3)CC2)cc1Cl` [Example 107, 5-{[1-(3-chloro-4-methoxyphenyl)cyclopropane-1-carbonyl](3-phenylpropyl)amino}pentanoic Acid], in assay [1], half-maximal inhibition (IC50) was put at 3590 nM and the Emax amounted to 71%. In addition, on LPAR1, the IC50 was 78 nM and the Emax turned out to be 85%.
The corresponding values for `COc1ccc(C(=O)N(CCCCC(=O)O)CCCc2ccccc2)cc1OC` [Example 83, 5-[(3,4-dimethoxybenzoyl)(3-phenylpropyl)amino]pentanoic Acid] are more than 10000 nM, 11%, more than 30000 nM and 25%.
Regarding `COc1cc(C(=O)N(CCCCC(=O)NS(=O)(=O)C(C)C)CCCc2ccccc2)cc(OC)c1C` [Example 124, 3,5-dimethoxy-4-methyl-N-{5-oxo-5-[(propane-2-sulfonyl)amino]pentyl}-N-(3-phenylpropyl)benzamide], the concentration for half-maximal inhibition (IC50) worked out at 1150 nM in assay [1] and 59 nM at LPAR1. Moreover, the figures for the Emax (in assay [1]; at LPAR1) were 88% and 92%, respectively.
Turning to `COc1cc(C(=O)N(CCCCc2nnn[nH]2)CCCc2ccccc2)cc(OC)c1C` [Example 166, 3,5-dimethoxy-4-methyl-N-(3-phenylpropyl)-N-[4-(1H-tetrazol-5-yl)butyl]benzamide], in assay [1], the IC50 came to 1060 nM and the Emax was determined as 80%. At LPAR1, the IC50 was found to be 42 nM and the Emax was determined as 96%.
The corresponding values for `Cc1ncc(Cl)c(C(=O)N(CCCCC(=O)O)CCCc2ccccc2)n1` [Example 167, 5-[(5-chloro-2-methylpyrimidine-4-carbonyl)(3-phenylpropyl)amino]pentanoic Acid] are more than 10000 nM, 25%, 635 nM and 58%.
Turning to `COc1cc(C(=O)N(CCCc2ccccc2)CCCC(Cc2ccccc2)C(=O)O)cc(OC)c1C` (stereo not drawn) [Example 52, 2-benzyl-5-[(3,5-dimethoxy-4-methylbenzoyl)(3-phenylpropyl)amino]pentanoic Acid], the IC50 in assay [1] is 1010 nM; on LPAR1, 124 nM. Besides, the Emax in assay [1] is 77%; at LPAR1 it was 87%.
